From ChEMBL document CHEMBL1201862, “PubChem BioAssay data set” (2004)
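Compound exposure: 48 hours, 5 concentrations, 96-well plates. Here, GI50 denotes the concentration required for 50% inhibition of growth.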 Calls of active or inactive are those of the source. Rule as the data show it: active = GI50 up to about 1.1 µM and inactive = higher.

Tests used:
Test in all cases: NCI tumour cell line growth inhibition, 48 h
CAKI-1 = test system: CAKI-1
CCRF-CEM = test system: CCRF-CEM
COLO 205 = test system: COLO 205
EKVX = test system: EKVX
HOP-62 = test system: HOP-62
HOP-92 = test system: HOP-92
IGROV-1 = test system: IGROV-1
K562 = test system: K562
LOX IMVI = test system: LOX IMVI
Malme-3M = test system: Malme-3M
OVCAR-3 = test system: OVCAR-3
OVCAR-4 = test system: OVCAR-4
RXF 393 = test system: RXF 393
SF-268 = test system: SF-268
SF-539 = test system: SF-539
SK-MEL-28 = test system: SK-MEL-28
SN12C = test system: SN12C
UO-31 = test system: UO-31
MOLT-4 = test system: MOLT-4

SMILES: C=CC/N=C1/N=C(CC(=O)OCC)CS1
- GI50 (CAKI-1): > 100 µM (inactive)
- GI50 (CCRF-CEM): > 100 µM (inactive)
- GI50 (COLO 205): > 100 µM (inactive)
- GI50 (EKVX): > 100 µM (inactive)
- GI50 (HOP-62): > 100 µM (inactive)
- GI50 (HOP-92): > 100 µM (inactive)
- GI50 (IGROV-1): > 100 µM (inactive)
- GI50 (K562): > 100 µM (inactive)
- GI50 (LOX IMVI): > 100 µM (inactive)
- GI50 (Malme-3M): > 100 µM (inactive)
- GI50 (OVCAR-3): > 100 µM (inactive)
- GI50 (OVCAR-4): > 100 µM (inactive)
- GI50 (RXF 393): > 100 µM (inactive)
- GI50 (SF-268): > 100 µM (inactive)
- GI50 (SF-539): > 100 µM (inactive)
- GI50 (SK-MEL-28): > 100 µM (inactive)
- GI50 (SN12C): > 100 µM (inactive)
- GI50 (UO-31): > 100 µM (inactive)

SMILES: O=c1c2ccccc2n2n1CC(O)C2 (configuration not stated)
- GI50 (CAKI-1): > 100 µM (inactive)
- GI50 (CCRF-CEM): > 100 µM (inactive)
- GI50 (COLO 205): > 100 µM (inactive)
- GI50 (EKVX): > 100 µM (inactive)
- GI50 (HOP-62): > 100 µM (inactive)
- GI50 (HOP-92): > 100 µM (inactive)
- GI50 (IGROV-1): > 100 µM (inactive)
- GI50 (K562): > 100 µM (inactive)
- GI50 (LOX IMVI): > 100 µM (inactive)
- GI50 (MOLT-4): > 100 µM (inactive)
- GI50 (Malme-3M): 4.56 µM (inactive)
- GI50 (OVCAR-3): > 100 µM (inactive)
- GI50 (OVCAR-4): > 100 µM (inactive)
- GI50 (RXF 393): > 100 µM (inactive)
- GI50 (SF-268): > 100 µM (inactive)
- GI50 (SF-539): > 100 µM (inactive)
- GI50 (SK-MEL-28): > 100 µM (inactive)
- GI50 (SN12C): > 100 µM (inactive)
- GI50 (UO-31): > 100 µM (inactive)

SMILES: COC1OC(CO)C(O)C1N (configuration not stated)
- GI50 (CAKI-1): > 100 µM (inactive)
- GI50 (CCRF-CEM): > 100 µM (inactive)
- GI50 (COLO 205): > 100 µM (inactive)
- GI50 (EKVX): > 100 µM (inactive)
- GI50 (HOP-62): > 100 µM (inactive)
- GI50 (HOP-92): > 100 µM (inactive)
- GI50 (IGROV-1): > 100 µM (inactive)
- GI50 (K562): > 100 µM (inactive)
- GI50 (LOX IMVI): > 100 µM (inactive)
- GI50 (MOLT-4): > 100 µM (inactive)
- GI50 (Malme-3M): > 100 µM (inactive)
- GI50 (OVCAR-3): > 100 µM (inactive)
- GI50 (OVCAR-4): > 100 µM (inactive)
- GI50 (RXF 393): > 100 µM (inactive)
- GI50 (SF-268): > 100 µM (inactive)
- GI50 (SF-539): > 100 µM (inactive)
- GI50 (SK-MEL-28): > 100 µM (inactive)
- GI50 (SN12C): > 100 µM (inactive)

SMILES: CC(=O)N(C)c1ccc2ncccc2c1[N+](=O)[O-]
- GI50 (CAKI-1): > 100 µM (inactive)
- GI50 (CCRF-CEM): > 100 µM (inactive)
- GI50 (EKVX): > 100 µM (inactive)
- GI50 (HOP-62): > 100 µM (inactive)
- GI50 (HOP-92): > 100 µM (inactive)
- GI50 (IGROV-1): > 100 µM (inactive)
- GI50 (K562): > 100 µM (inactive)
- GI50 (LOX IMVI): > 100 µM (inactive)
- GI50 (MOLT-4): > 100 µM (inactive)
- GI50 (Malme-3M): > 100 µM (inactive)
- GI50 (OVCAR-3): > 100 µM (inactive)
- GI50 (OVCAR-4): > 100 µM (inactive)
- GI50 (RXF 393): > 100 µM (inactive)
- GI50 (SF-268): > 100 µM (inactive)
- GI50 (SF-539): > 100 µM (inactive)
- GI50 (SK-MEL-28): > 100 µM (inactive)
- GI50 (SN12C): > 100 µM (inactive)
- GI50 (UO-31): > 100 µM (inactive)

SMILES: COc1cc2c(c(OC)c1OC)-c1ccc(SC)c(=O)cc1C(CC(=O)Oc1cccc([N+](=O)[O-])c1)C2 (configuration not stated)
- GI50 (CAKI-1): 0.685 µM (active)
- GI50 (CCRF-CEM): 0.745 µM (active)
- GI50 (COLO 205): 0.489 µM (active)
- GI50 (EKVX): 3.38 µM (inactive)
- GI50 (HOP-92): 3.09 µM (inactive)
- GI50 (IGROV-1): 3.44 µM (inactive)
- GI50 (K562): 0.344 µM (active)
- GI50 (LOX IMVI): 0.867 µM (active)
- GI50 (MOLT-4): 1.15 µM (inactive)
- GI50 (Malme-3M): 0.36 µM (active)
- GI50 (OVCAR-3): 0.276 µM (active)
- GI50 (OVCAR-4): 5.66 µM (inactive)
- GI50 (RXF 393): 0.139 µM (active)
- GI50 (SF-268): 1.02 µM (active)
- GI50 (SF-539): 0.263 µM (active)
- GI50 (SK-MEL-28): 0.546 µM (active)
- GI50 (SN12C): 1.11 µM (active)
- GI50 (UO-31): 2.76 µM (inactive)

SMILES: CN1CCC(O)C(CNC23CC4CC(CC(C4)C2)C3)C1 (configuration not stated)
- GI50 (CAKI-1): > 100 µM (inactive)
- GI50 (CCRF-CEM): > 100 µM (inactive)
- GI50 (COLO 205): > 100 µM (inactive)
- GI50 (EKVX): > 100 µM (inactive)
- GI50 (HOP-62): > 100 µM (inactive)
- GI50 (HOP-92): 85.1 µM (inactive)
- GI50 (K562): > 100 µM (inactive)
- GI50 (LOX IMVI): > 100 µM (inactive)
- GI50 (MOLT-4): > 100 µM (inactive)
- GI50 (Malme-3M): > 100 µM (inactive)
- GI50 (OVCAR-4): > 100 µM (inactive)
- GI50 (RXF 393): 62.2 µM (inactive)
- GI50 (SF-268): > 100 µM (inactive)
- GI50 (SF-539): > 100 µM (inactive)
- GI50 (SK-MEL-28): > 10 µM (inactive)
- GI50 (SN12C): > 100 µM (inactive)
- GI50 (UO-31): > 100 µM (inactive)

SMILES: COc1ccc(/C=C/c2cc(OC)c(OC)c(OC)c2)cc1
- GI50 (CAKI-1): 3.53 µM (inactive)
- GI50 (CCRF-CEM): 1.66 µM (inactive)
- GI50 (COLO 205): 3.14 µM (inactive)
- GI50 (EKVX): 24.2 µM (inactive)
- GI50 (HOP-62): 3.48 µM (inactive)
- GI50 (HOP-92): 90.8 µM (inactive)
- GI50 (IGROV-1): 11 µM (inactive)
- GI50 (K562): 3.2 µM (inactive)
- GI50 (LOX IMVI): 5.52 µM (inactive)
- GI50 (MOLT-4): 2.21 µM (inactive)
- GI50 (Malme-3M): 3.27 µM (inactive)
- GI50 (OVCAR-3): 3.26 µM (inactive)
- GI50 (OVCAR-4): 41.5 µM (inactive)
- GI50 (RXF 393): 1.48 µM (inactive)
- GI50 (SF-268): 15.1 µM (inactive)
- GI50 (SF-539): 4.29 µM (inactive)
- GI50 (SK-MEL-28): 18.7 µM (inactive)
- GI50 (SN12C): 13.2 µM (inactive)
- GI50 (UO-31): 4.68 µM (inactive)
